Measured values from the supplement of paper PMC4862054.

Assays:
HCC1937 [1] = test: drug sensitivity score (DSS), CellTox Green (DSS (AUC-based score)); higher = stronger drug effect (viability inhibition or cytotoxicity); extreme values may be limits of the assay; conditions: incubation time: 72 h
Procedure, shortened: (§1)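 Compound was dispensed into 384-well plates at 5 concentrations in 10-fold steps spanning a 10,000-fold range chosen for each compound, and 20 µl of breast cancer cell suspension was added before 72 h of incubation. CellTox Green fluorescence was read at 485/520 nm, followed by CellTiter-Glo luminescence after 10 min at room temperature. Values on each plate were normalised to 0.1 % DMSO and a positive kill control. The drug sensitivity score came from the area under the fitted dose-response curve.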

CAL-85-1 [2] = test: as above; conditions: incubation time: 72 h
Procedure, shortened: as §1

MFM-223 = test: as above; conditions: incubation time: 72 h
Procedure, shortened: as §1

HCC1599 [3] = test: as above; conditions: incubation time: 72 h
Procedure, shortened: as §1

MDA-MB-436 [4] = test: as above; conditions: incubation time: 72 h
Procedure, shortened: as §1

MDA-MB-231 [5] = test: as above; conditions: incubation time: 72 h
Procedure, shortened: as §1

MCF-10A = test: as above; conditions: incubation time: 72 h
Procedure, shortened: as §1

MDA-MB-468 [6] = test: as above; conditions: incubation time: 72 h
Procedure, shortened: as §1

MDA-MB-468 [7] = conditions: 72 h
Procedure, shortened: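 Per-plate normalisation used 0.1 % DMSO and a positive kill control. Breast cancer cell lines (20 µl suspension) were seeded into 384-well plates containing compound at 5 concentrations in 10-fold steps across a compound-specific 10,000-fold range, incubated for 72 h, and read first for CellTox Green fluorescence (485/520 nm), then for CellTiter-Glo luminescence. EC50 was fitted from the dose-response curves and censored at the top concentration.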

HCC1937 [8] = test: normalised viability (% of control), CellTiter-Blue; higher = more viable cells (about 100 = DMSO control); conditions: incubation time: 72 h
Procedure, shortened: (§2)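 The reported quantity is normalised viability at a single listed concentration of the series. Compound in 5 µl medium was pre-dispensed into 384-well plates and 20 µl of breast cancer cell suspension was added for 72 h. A 2 h, 37 °C CellTiter-Blue step (2.5 µl) preceded fluorescence reading at 560/590 nm, and plates were normalised to vehicle (100) and a positive kill control (0).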

HDQ-P1 = test: as above; conditions: incubation time: 72 h
Procedure, shortened: as §2

Hs578T = test: as above; conditions: incubation time: 72 h
Procedure, shortened: as §2

SK-BR-3 = test: as above; conditions: incubation time: 72 h
Procedure, shortened: as §2

CAL-148 = test: as above; conditions: incubation time: 72 h
Procedure, shortened: as §2

DU-4475 = test: as above; conditions: incubation time: 72 h
Procedure, shortened: as §2

MDA-MB-453 = test: as above; conditions: incubation time: 72 h
Procedure, shortened: as §2

CAL-85-1 [9] = test: as above; conditions: incubation time: 72 h
Procedure, shortened: as §2

HCC1143 = test: as above; conditions: incubation time: 72 h
Procedure, shortened: as §2

CAL-120 = test: as above; conditions: incubation time: 72 h
Procedure, shortened: as §2

HCC1599 [10] = test: as above; conditions: incubation time: 72 h
Procedure, shortened: as §2

MDA-MB-436 [11] = test: as above; conditions: incubation time: 72 h
Procedure, shortened: as §2

MDA-MB-231 [12] = test: as above; conditions: incubation time: 72 h
Procedure, shortened: as §2

MDA-MB-468 [13] = test: as above; conditions: incubation time: 72 h
Procedure, shortened: as §2

## COc1cc2c(NC3CCN(C(C)C)CC3)nc(N3CCC(F)(F)CC3)nc2cc1OCCCN1CCCC1 [UNC0642]
HCC1937 [1]
  drug sensitivity score: 1.95
CAL-85-1 [2]
  drug sensitivity score: 6.85
MFM-223
  drug sensitivity score: 0
HCC1599 [3]
  drug sensitivity score: 0
MDA-MB-436 [4]
  drug sensitivity score: 11
MDA-MB-231 [5]
  drug sensitivity score: 7.71
MCF-10A
  drug sensitivity score: 2.29
MDA-MB-468 [6]
  drug sensitivity score: 5.22
MDA-MB-468 [7]
  EC50, CellTiter-Glo: 2050 nM

## CNC(=O)c1cccc(-c2ccc3c(N4CCOC[C@@H]4C)nc(N4CCOC[C@@H]4C)nc3n2)c1 [AZD2014]
HCC1937 [1]
  drug sensitivity score: 0
CAL-85-1 [2]
  drug sensitivity score: 0
MFM-223
  drug sensitivity score: 3.63
HCC1599 [3]
  drug sensitivity score: 0
MDA-MB-436 [4]
  drug sensitivity score: 0
MDA-MB-231 [5]
  drug sensitivity score: 0
MCF-10A
  drug sensitivity score: 0
MDA-MB-468 [6]
  drug sensitivity score: 0
MDA-MB-468 [7]
  EC50, CellTiter-Glo: 497 nM

## COc1cc(O)c2c(c1)/C=C/C[C@H](O)[C@H](O)C(=O)/C=C\C[C@H](C)OC2=O [(5Z)-7-Oxozeaenol]
HCC1937 [1]
  drug sensitivity score: 18.1
CAL-85-1 [2]
  drug sensitivity score: 18.5
MFM-223
  drug sensitivity score: 8.77
HCC1599 [3]
  drug sensitivity score: 0
MDA-MB-436 [4]
  drug sensitivity score: 0
MDA-MB-231 [5]
  drug sensitivity score: 9.09
MCF-10A
  drug sensitivity score: 0
MDA-MB-468 [6]
  drug sensitivity score: 0
MDA-MB-468 [7]
  EC50, CellTiter-Glo: 953 nM

## S=P(N1CC1)(N1CC1)N1CC1 [Thio-TEPA]
HCC1937 [1]
  drug sensitivity score: 0
CAL-85-1 [2]
  drug sensitivity score: 0
MFM-223
  drug sensitivity score: 0
HCC1599 [3]
  drug sensitivity score: 0
MDA-MB-436 [4]
  drug sensitivity score: 0
MDA-MB-231 [5]
  drug sensitivity score: 0
MCF-10A
  drug sensitivity score: 0
MDA-MB-468 [6]
  drug sensitivity score: 0
HCC1937 [8]; 100 nM
  normalised viability: 102%
HCC1937 [8]; 10000 nM
  normalised viability: 93.4%
HCC1937 [8]; 100000 nM
  normalised viability: 83.6%
HDQ-P1; 30 nM
  normalised viability: 111%
HDQ-P1; 300 nM
  normalised viability: 115%
HDQ-P1; 1000 nM
  normalised viability: 104%
Hs578T; 100 nM
  normalised viability: 115%
Hs578T; 10000 nM
  normalised viability: 95.6%
Hs578T; 100000 nM
  normalised viability: 109%
SK-BR-3; 100 nM
  normalised viability: 102%
SK-BR-3; 10000 nM
  normalised viability: 99.3%
SK-BR-3; 100000 nM
  normalised viability: 97.1%
CAL-148; 30 nM
  normalised viability: 93.8%
CAL-148; 300 nM
  normalised viability: 92.7%
CAL-148; 1000 nM
  normalised viability: 105%
DU-4475; 30 nM
  normalised viability: 97.2%
DU-4475; 300 nM
  normalised viability: 98.7%
DU-4475; 1000 nM
  normalised viability: 91.8%
MDA-MB-453; 30 nM
  normalised viability: 111%
MDA-MB-453; 300 nM
  normalised viability: 113%
MDA-MB-453; 1000 nM
  normalised viability: 104%
CAL-85-1 [9]; 30 nM
  normalised viability: 99.9%
CAL-85-1 [9]; 300 nM
  normalised viability: 96.4%
CAL-85-1 [9]; 1000 nM
  normalised viability: 102%
HCC1143; 100 nM
  normalised viability: 109%
HCC1143; 10000 nM
  normalised viability: 95.9%
HCC1143; 100000 nM
  normalised viability: 81.7%
CAL-120; 100 nM
  normalised viability: 90.7%
CAL-120; 10000 nM
  normalised viability: 86.8%
CAL-120; 100000 nM
  normalised viability: 93.7%
HCC1599 [10]; 100 nM
  normalised viability: 97.8%
HCC1599 [10]; 10000 nM
  normalised viability: 82.7%
HCC1599 [10]; 100000 nM
  normalised viability: 94.7%
MDA-MB-436 [11]; 100 nM
  normalised viability: 110%
MDA-MB-436 [11]; 10000 nM
  normalised viability: 87.7%
MDA-MB-436 [11]; 100000 nM
  normalised viability: 123%
MDA-MB-231 [12]; 100 nM
  normalised viability: 103%
MDA-MB-231 [12]; 10000 nM
  normalised viability: 83.2%
MDA-MB-231 [12]; 100000 nM
  normalised viability: 64.4%
MDA-MB-468 [13]; 100 nM
  normalised viability: 104%
MDA-MB-468 [13]; 10000 nM
  normalised viability: 107%
MDA-MB-468 [13]; 100000 nM
  normalised viability: 95.3%
